Key:
wheat = experiment: Test B postemergence herbicide test; format: in vivo, Triticum aestivum; design: key to Wheat plant response rating: 0 = no effect, 100 = complete control; details: postemergence, visual rating, scale 0 (no effect) to 100 (complete control)
Method in brief: (§1)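 Each value is a visual 0–100 response rating taken against controls 13 to 15 days after treatment in the greenhouse. Plants received formulated chemical postemergence at the 1- to 4-leaf stage or, in flooded paddy, at the 2-leaf stage.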

rice [1] = experiment: Test B flooded paddy test; format: in vivo, Oryza sativa; details: 1000 g ai/ha, visual rating, scale 0 to 100 (0 no effect, 100 complete control), 13 to 15 days
Method in brief: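 Scale 0–100: zero equals no visible effect, 100 complete control, judged by eye relative to controls. Timing: 13 to 15 days in greenhouse post-treatment. Growth stage at spraying: two leaves (paddy) or one to four leaves, 2–18 cm (postemergence).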

Surinam grass = experiment: Test B pre-/postemergence herbicide test; format: in vivo, Urochloa decumbens; details: for Surinam Grass plant response rating: postemergence, scale 0 (no effect) to 100 (complete control)
Method in brief: (§2)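 Formulation: non-phytotoxic solvent mix with surfactant. Timing: preemergence on seed and postemergence on 2–18 cm plants, applied concurrently. Readout after 13–15 d greenhouse: visual 0–100 control rating against controls.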

blackgrass = experiment: Test B postemergence herbicide test; format: in vivo, Alopecurus myosuroides; details: postemergence, visual rating, scale 0 (no effect) to 100 (complete control)
Method in brief: (§3)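 Greenhouse test; postemergence application to plants at 1–4 leaves (2–18 cm); paddy species at 2 leaves; evaluated visually vs controls at 13–15 days; scale 0–100 (100 = complete control).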

wild oat = experiment: Test B postemergence herbicide test; format: in vivo, Avena fatua; details: postemergence, visual rating, scale 0 (no effect) to 100 (complete control)
Method in brief: as §1

ducksalad = experiment: Test B flooded paddy test; format: in vivo, Heteranthera limosa; details: 1000 g ai/ha, visual rating, scale 0 to 100 (0 no effect, 100 complete control), 13 to 15 days
Method in brief: as §3

giant foxtail = experiment: Test B pre-/postemergence herbicide test; format: in vivo, Setaria faberi; details: for Foxtail, Giant plant response rating: postemergence, scale 0 (no effect) to 100 (complete control)
Method in brief: as §2

pigweed = experiment: Test B pre-/postemergence herbicide test; format: in vivo, Amaranthus retroflexus; details: for Pigweed plant response rating (0 to 100 scale) / Plant response rating, Pigweed: preemergence; for Pigweed plant response rating: postemergence, scale 0 (no effect) to 100 (complete control)
Method in brief: as §2

[2] = test system: small flower umbrella sedge; experiment: Test B flooded paddy test; format: in vivo, Cyperus difformis; details: 1000 g ai/ha, visual rating, scale 0 to 100 (0 no effect, 100 complete control), 13 to 15 days
Method in brief: as §3

corn = experiment: Test B pre-/postemergence herbicide test; format: in vivo, Zea mays; details: for Corn plant response rating (0 to 100 scale) / Plant response rating, Corn: preemergence; for Corn plant response rating: postemergence, scale 0 (no effect) to 100 (complete control)
Method in brief: as §2

lambsquarters = experiment: Test B pre-/postemergence herbicide test; format: in vivo, Chenopodium album; details: for Lambsquarters plant response rating (0 to 100 scale) / Plant response rating, Lambsquarters: preemergence; for Lambsquarters plant response rating: postemergence, scale 0 (no effect) to 100 (complete control)
Method in brief: as §2

barnyardgrass [3] = experiment: Test B flooded paddy test; format: in vivo, Echinochloa crus-galli; details: 1000 g ai/ha, visual rating, scale 0 to 100 (0 no effect, 100 complete control), 13 to 15 days
Method in brief: as §3

barnyardgrass [4] = experiment: Test B pre-/postemergence herbicide test; format: in vivo, Echinochloa crus-galli; details: for Barnyardgrass plant response rating (0 to 100 scale) / Plant response rating, Barnyardgrass: preemergence; for Barnyardgrass plant response rating: postemergence, scale 0 (no effect) to 100 (complete control)
Method in brief: (§4)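 Greenhouse pot assay with simultaneous preemergence (treated seed) and postemergence (2–18 cm seedlings) applications of surfactant-containing, non-phytotoxic solvent formulations. Response scored visually 13–15 days later on a 0–100 scale, 100 meaning complete control.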

cocklebur = experiment: Test B pre-/postemergence herbicide test; format: in vivo, Xanthium strumarium; details: for Cocklebur plant response rating (0 to 100 scale) / Plant response rating, Cocklebur: preemergence; for Cocklebur plant response rating: postemergence, scale 0 (no effect) to 100 (complete control)
Method in brief: as §4

morningglory = experiment: Test B pre-/postemergence herbicide test; format: in vivo, Ipomoea coccinea; details: for Morningglory plant response rating: postemergence, scale 0 (no effect) to 100 (complete control)
Method in brief: as §4

rice [5] = experiment: Test B pre-/postemergence herbicide test; format: in vivo, Oryza sativa; details: preemergence; for Rice plant response rating (0 to 100 scale): 125 g ai/ha; for Plant response rating, Rice: 500 g ai/ha
Method in brief: as §2

large crabgrass = experiment: Test B pre-/postemergence herbicide test; format: in vivo, Digitaria sanguinalis; details: for Crabgrass, Large plant response rating (0 to 100 scale) / Plant response rating, Crabgrass, Large: preemergence; for Crabgrass, Large plant response rating: postemergence, scale 0 (no effect) to 100 (complete control)
Method in brief: as §2

velvetleaf = experiment: Test B pre-/postemergence herbicide test; format: in vivo, Abutilon theophrasti; details: for Velvetleaf plant response rating (0 to 100 scale) / Plant response rating, Velvetleaf: preemergence; for Velvetleaf plant response rating: postemergence, scale 0 (no effect) to 100 (complete control)
Method in brief: as §2

[6] = 500 g ai/ha, visual rating 0-100, 0 no effect, 100 complete control, preemergence
[7] = 125 g ai/ha, 0 = no effect, 100 = complete control
[8] = 500 g ai/ha, visual rating 0-100, 0 no effect, 100 complete control
[9] = 125 g ai/ha, 0 = no effect, 100 = complete control, preemergence
[10] = 0 = no effect, 100 = complete control
[11] = 500 g ai/ha, visual rating, 0 = no effect, 100 = complete control, preemergence
[12] = 500 g ai/ha, visual rating, 0 = no effect, 100 = complete control

CC(=NO)c1cccc(NC(=O)c2nn(C(C)(C)C)cc2C(F)(F)F)c1 [Compound 171]
10: Surinam Grass plant response rating (Surinam grass; 125 g ai/ha, visual rating) | Surinam Grass plant response rating (Surinam grass; 500 g ai/ha, visual rating) | Foxtail, Giant plant response rating (giant foxtail; 125 g ai/ha, visual rating) | Pigweed plant response rating (pigweed; 125 g ai/ha, visual rating) | Corn plant response rating (corn; 500 g ai/ha, visual rating) | Lambsquarters plant response rating (lambsquarters; 125 g ai/ha, visual rating) | Barnyardgrass plant response rating (barnyardgrass [4]; 500 g ai/ha, visual rating) | Crabgrass, Large plant response rating (large crabgrass; 500 g ai/ha, visual rating)
30: Plant response rating, Crabgrass, Large (large crabgrass; [8])
0: Wheat plant response rating (wheat; 125 g ai/ha) | Wheat plant response rating (wheat; 500 g ai/ha) | Rice plant response rating (rice [1]) | Plant response rating, Surinam Grass (Surinam grass; [6]) | Blackgrass plant response rating (blackgrass; 125 g ai/ha) | Blackgrass plant response rating (blackgrass; 500 g ai/ha) | Oat, Wild plant response rating (wild oat; 125 g ai/ha) | Oat, Wild plant response rating (wild oat; 500 g ai/ha) | Ducksalad plant response rating (ducksalad) | Plant response rating, Foxtail, Giant (giant foxtail; [6]) | Pigweed plant response rating (0 to 100 scale) (pigweed; [7]) | Plant response rating, Pigweed (pigweed; [8]) | Sedge, Umbrella plant response rating [2] | Corn plant response rating (0 to 100 scale) (corn; [7]) | Plant response rating, Corn (corn; [8]) | Corn plant response rating (corn; 125 g ai/ha, visual rating) | Lambsquarters plant response rating (0 to 100 scale) (lambsquarters; [7]) | Plant response rating, Lambsquarters (lambsquarters; [8]) | Barnyardgrass plant response rating (barnyardgrass [3]) | Barnyardgrass plant response rating (0 to 100 scale) (barnyardgrass [4]; [7]) | Plant response rating, Barnyardgrass (barnyardgrass [4]; [8]) | Barnyardgrass plant response rating (barnyardgrass [4]; 125 g ai/ha, visual rating) | Cocklebur plant response rating (0 to 100 scale) (cocklebur; [7]) | Plant response rating, Cocklebur (cocklebur; [8]) | Cocklebur plant response rating (cocklebur; 125 g ai/ha, visual rating) | Cocklebur plant response rating (cocklebur; 500 g ai/ha, visual rating) | Morningglory plant response rating (0 to 100 scale) (morningglory; [9]) | Morningglory plant response rating (morningglory; 125 g ai/ha, visual rating) | Morningglory plant response rating (morningglory; 500 g ai/ha, visual rating) | Rice plant response rating (0 to 100 scale) (rice [5]; [10]) | Plant response rating, Rice (rice [5]; visual rating 0-100, 0 no effect, 100 complete control) | Crabgrass, Large plant response rating (0 to 100 scale) (large crabgrass; [7]) | Crabgrass, Large plant response rating (large crabgrass; 125 g ai/ha, visual rating) | Velvetleaf plant response rating (0 to 100 scale) (velvetleaf; [7]) | Velvetleaf plant response rating (velvetleaf; 125 g ai/ha, visual rating) | Velvetleaf plant response rating (velvetleaf; 500 g ai/ha, visual rating)
20: Foxtail, Giant plant response rating (giant foxtail; 500 g ai/ha, visual rating) | Pigweed plant response rating (pigweed; 500 g ai/ha, visual rating) | Lambsquarters plant response rating (lambsquarters; 500 g ai/ha, visual rating) | Plant response rating, Velvetleaf (velvetleaf; [8])

CCN(CC)C(=O)c1cccc(NC(=O)c2nn(C(C)(C)C)cc2Cl)c1 [Compound 218]
0: Wheat plant response rating (wheat; 125 g ai/ha) | Wheat plant response rating (wheat; 500 g ai/ha) | Rice plant response rating (rice [1]) | Surinam Grass plant response rating (0 to 100 scale) (Surinam grass; [9]) | Plant response rating, Surinam Grass (Surinam grass; [11]) | Surinam Grass plant response rating (Surinam grass; 125 g ai/ha, visual rating) | Blackgrass plant response rating (blackgrass; 125 g ai/ha) | Blackgrass plant response rating (blackgrass; 500 g ai/ha) | Oat, Wild plant response rating (wild oat; 125 g ai/ha) | Oat, Wild plant response rating (wild oat; 500 g ai/ha) | Ducksalad plant response rating (ducksalad) | Foxtail, Giant plant response rating (0 to 100 scale) (giant foxtail; [9]) | Plant response rating, Foxtail, Giant (giant foxtail; [11]) | Foxtail, Giant plant response rating (giant foxtail; 125 g ai/ha, visual rating) | Foxtail, Giant plant response rating (giant foxtail; 500 g ai/ha, visual rating) | Pigweed plant response rating (0 to 100 scale) (pigweed; [7]) | Plant response rating, Pigweed (pigweed; [12]) | Pigweed plant response rating (pigweed; 125 g ai/ha, visual rating) | Corn plant response rating (0 to 100 scale) (corn; [7]) | Plant response rating, Corn (corn; [12]) | Corn plant response rating (corn; 125 g ai/ha, visual rating) | Lambsquarters plant response rating (0 to 100 scale) (lambsquarters; [7]) | Plant response rating, Lambsquarters (lambsquarters; [12]) | Lambsquarters plant response rating (lambsquarters; 125 g ai/ha, visual rating) | Barnyardgrass plant response rating (barnyardgrass [3]) | Barnyardgrass plant response rating (0 to 100 scale) (barnyardgrass [4]; [7]) | Plant response rating, Barnyardgrass (barnyardgrass [4]; [12]) | Barnyardgrass plant response rating (barnyardgrass [4]; 125 g ai/ha, visual rating) | Barnyardgrass plant response rating (barnyardgrass [4]; 500 g ai/ha, visual rating) | Cocklebur plant response rating (0 to 100 scale) (cocklebur; [7]) | Plant response rating, Cocklebur (cocklebur; [12]) | Cocklebur plant response rating (cocklebur; 125 g ai/ha, visual rating) | Cocklebur plant response rating (cocklebur; 500 g ai/ha, visual rating) | Morningglory plant response rating (0 to 100 scale) (morningglory; [9]) | Plant response rating, Morningglory (morningglory; [11]) | Morningglory plant response rating (morningglory; 125 g ai/ha, visual rating) | Rice plant response rating (0 to 100 scale) (rice [5]; [10]) | Plant response rating, Rice (rice [5]; visual rating, 0 = no effect, 100 = complete control) | Crabgrass, Large plant response rating (0 to 100 scale) (large crabgrass; [7]) | Crabgrass, Large plant response rating (large crabgrass; 125 g ai/ha, visual rating) | Velvetleaf plant response rating (0 to 100 scale) (velvetleaf; [7]) | Plant response rating, Velvetleaf (velvetleaf; [12]) | Velvetleaf plant response rating (velvetleaf; 125 g ai/ha, visual rating) | Velvetleaf plant response rating (velvetleaf; 500 g ai/ha, visual rating)
20: Pigweed plant response rating (pigweed; 500 g ai/ha, visual rating) | Sedge, Umbrella plant response rating [2] | Plant response rating, Crabgrass, Large (large crabgrass; [12])
10: Surinam Grass plant response rating (Surinam grass; 500 g ai/ha, visual rating) | Corn plant response rating (corn; 500 g ai/ha, visual rating) | Lambsquarters plant response rating (lambsquarters; 500 g ai/ha, visual rating) | Morningglory plant response rating (morningglory; 500 g ai/ha, visual rating) | Crabgrass, Large plant response rating (large crabgrass; 500 g ai/ha, visual rating)

Source: patent US20060069132A1, “Azolecarboxamide herbicides” (priority 2004, published 2006)
